Experimental findings from paper PMC7504639, “Fluorescence Lifetime and Intensity of Thioflavin T as Reporters of Different Fibrillation Stages: Insights Obtained from Fluorescence Up-Conversion and Particle Size Distribution Measurements” (International Journal of Molecular Sciences, 2020) are described below.

Structures can show the parent of a compound that is named as a salt.

The target of this test is T1, Human recombinant insulin (Ins); protofibrils / mature fibrils (Homo sapiens, UniProt P01308).
T1 construct: mature two-chain insulin (cut from proinsulin), recombinant, PanEco; aggregated to amyloid fibrils at pH 2, 62 °C; not the native monomer
The test is described as follows: fluorescence-mode nanoparticle tracking (fibril staining). Type of test: binding. The note with it: mature amyloid fibrils, not native insulin.

T1 sequence (P01308 25-54): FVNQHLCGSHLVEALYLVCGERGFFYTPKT
T1 sequence (P01308 90-110): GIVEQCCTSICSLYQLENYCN

On to `CC[n+]1c(/C=C/c2c(C)cc(N(C)C)cc2C)sc2ccccc21` [2M-DMASEBT, trans2-(′-(dimethylamino)-2,6-dimethylstyryl)-3-ethyl-1,3-benzothiazole tosylate], for which the “fluorescence-mode nanoparticle tracking (fibril staining)” value was “Fibrils were stained using the ThT derivative 2M-DMASEBT”.
